Assay results from patent US6399607B1, “Aminomethylene amide analogs of pyrazinamide with intracellular antimycobacterial activity against pyrazinamide-resistant mycobacteria combined with a rifamycin” (priority 1999, dated 2002).
Read-outs that look alike come from different tables or passages of the source.

Columns and labels:
Assay type in all cases: cell-based, Mycobacterium tuberculosis
[1] = tested on: M. tuberculosis; design: unit not given beside the values; conditions: for MIC, M. tuberculosis ATCC 27294: ATCC 27294 = H37RV, strain susceptible to pyrazinamide; for MIC, M. tuberculosis ATCC 35822: ATCC 35822, isoniazid (INH)-resistant strain; for MIC, M. tuberculosis ATCC 35828: ATCC35828, PZA resistant strain; for MIC, M. tuberculosis MS 6210: MS6210, resistant clinical isolate
[2] = tested on: M. tuberculosis; experiment: Influence of pH on MICs (Table 5); design: unit not given beside the values; conditions: ATCC 35828 (PZA resistant)
[3] = tested on: M. tuberculosis; experiment: microbe, parasite or virus in culture; design: MIC, PZA-resistant strain at pH 6.0: unit not given beside the values; conditions: for MIC, INH-resistant strain, pH 6.0 / MIC, PZA-resistant strain, pH 6.0 / MIC, INH-resistant strain, pH 6.8 / MIC, PZA-resistant strain, pH 6.8: 7H12 BACTEC broth
[4] = tested on: M. tuberculosis
[5] = tested on: M. tuberculosis; experiment: MIC in modified 7H10 broth against M. tuberculosis (Table 3); design: MIC, M. tuberculosis ATCC 35828: unit not given beside the values; conditions: ATCC 35828 (PZA resistant), pH 5.8
[6] = tested on: PZA-resistant Mtb in macrophages; conditions: FIG. 1; in comparison with PZA or the control

Structure (SMILES) | MIC, M. tuberculosis ATCC 27294 [1] | MIC, M. tuberculosis ATCC 35822 [1] | MIC, M. tuberculosis ATCC 35828 [1] | MIC, M. tuberculosis MS 6210 [1] | MIC, ATCC 35828 pH 6.0 [2] | MIC, ATCC 35828 pH 6.8 [2] | MIC, INH-resistant strain, pH 6.0 ([3]; pH 6.0) [g./ml] | MIC, PZA-resistant strain, pH 6.0 ([3]; pH 6.0) [g./ml] | MIC, INH-resistant strain, pH 6.8 [3] [g./ml] | MIC, PZA-resistant strain, pH 6.8 [3] [g./ml] | MIC, PZA-resistant strain, pH 5.5 ([3]; PZA-resistant strain) [g./ml] | MIC, M. tuberculosis ATCC 35828 [5] | other results
CN1CCN(CNC(=O)c2cnccn2)CC1 [Compound 7, (piperazin-1-ylmethyl)-amide] | 300 | 100 | 300 | 100 | – | – | – | – | – | – | – | – | –
O=C(NCN1CCOCC1)c1cnccn1 [MZA, morphazinamide] | – | – | – | – | 100 | 100 | 100 | 100 | 100 | 100 | 100 | – | activity at pH 6.8 compared with pH levels 5.5 and 6.0 ([4]; pH 6.8 v. 5.5 and 6.0): no different from or only slightly higher than at pH levels 5.5 and 6.0; MICs against susceptible strains at pH 5.5 and 6.0 compared with PZA ([4]; susceptible strains, pH 5.5 and 6.0): in the same range as those of PZA
NC(=O)c1cnc(Cl)cn1 [Compound 5-Chloro-PZA, 5-chloro-pyrazinamide, reference compound] | – | – | – | – | – | – | – | – | – | – | – | 8 | –
O=C(NCN1CCCC1)c1cnccn1 [Compound 1, pyrazine-2-carboxylic acid (pyrrolidin-1-ylmethyl)-amide] | – | – | – | – | 100 | 100 | 100 | 100 | 100 | 100 | 100 | 2 | –
CCN(CC)CNC(=O)c1cnc(N(CC)CC)cn1 [Compound 17, 5-diethylamino-pyrazinoic acid diethylaminomethyl-amide] | – | – | – | – | – | – | – | – | – | – | – | 16 | –
CN(CNC(=O)c1cnccn1)Cc1ccccc1 [Compound 8, [(benzyl-methyl-amino)-methyl]-amide] | 100 | 100 | 100 | 33 | – | – | – | – | – | – | – | – | –
NC(=O)c1cnccn1 [PZA, Pyrazinamide] | 33 | 33 | >300 | 100 | >300 | >300 | 33 | >300 | >300 | >300 | > 300 | 2048 | MIC, PZA-resistant strain at pH 6.0 ([3]; PZA-resistant strain, pH 6.0): > 300; activity against susceptible strains by pH ([4]; pH 5.5, 6.0, 6.8): active against susceptible strains at pH 5.5 and 6.0 only, and not at pH 6.8
CCCN(CCC)CNC(=O)c1cnccn1 [Compound 9, dipropylaminomethyl-amide] | 100 | 100 | 100 | 100 | – | – | – | – | – | – | – | – | –
O=C(NCN1CCOCC1)c1cnccn1 [Compound 4, (morpholin-4-ylmethyl)-amide] | 100 | 33 | 100 | 100 | – | – | – | – | – | – | – | 16 | –
CCN(CC)CNC(=O)c1cnccn1 [Compound 2, pyrazine-2-carboxylic acid diethylaminomethyl-amide] | – | – | – | – | 100 | 100 | 100 | 100 | 100 | 100 | – | 1 | number of colony forming units (CFU) of M. tuberculosis from macrophages [6]: reduced the number of CFU
